Reference: PubChem BioAssay AID248 (DTP/NCI, 2004)
Several values for one entry are separate records, joined by “and”; a condition that tells them apart may be missing. Equal entries are not always repeated. Toxic doses and inconclusive results are not listed. No stated cut-off is given here; in the data, active means T/C of 150% or more; inactive means T/C below 125%.

Tested on: L1210 leukemia ip in BDF1 mice, survival T/C
Experiment: NCI In Vivo Anticancer Drug Screen. Data for tumor model L1210 Leukemia (intraperitoneal) in B6D2F1 (BDF1) mice
Conditions: endpoint: mean survival time, higher = longer survival
Procedure, shortened: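 Read-out is survival time, reported as the treated-group measurement over the vehicle-control measurement.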

[1] = dose: 100.0 mg/kg/injection, schedule: Q01DX001 (ip), vehicle: saline with Tween-80
[2] = dose: 200.0 mg/kg/injection, schedule: Q01DX001 (ip), vehicle: saline with Tween-80
[3] = dose: 400.0 mg/kg/injection, schedule: Q01DX001 (ip), vehicle: saline with Tween-80
[4] = dose: 100.0 mg/kg/injection, schedule: Q04DX003 (ip), vehicle: saline with Tween-80
[5] = dose: 100.0 mg/kg/injection, schedule: Q01DX001 (ip), vehicle: saline
[6] = dose: 200.0 mg/kg/injection, schedule: Q01DX001 (ip), vehicle: saline
[7] = dose: 400.0 mg/kg/injection, schedule: Q01DX001 (ip), vehicle: saline
[8] = dose: 25.0 mg/kg/injection, schedule: Q01DX009 (ip), vehicle: saline
[9] = dose: 50.0 mg/kg/injection, schedule: Q01DX009 (ip), vehicle: saline
[10] = dose: 100.0 mg/kg/injection, schedule: Q01DX009 (ip), vehicle: saline
[11] = dose: 50.0 mg/kg/injection, schedule: Q01DX009 (ip), vehicle: Klucel (hydroxypropylcellulose) (HPC)
[12] = dose: 100.0 mg/kg/injection, schedule: Q01DX009 (ip), vehicle: Klucel (hydroxypropylcellulose) (HPC)
[13] = dose: 200.0 mg/kg/injection, schedule: Q01DX009 (ip), vehicle: Klucel (hydroxypropylcellulose) (HPC)
[14] = dose: 100.0 mg/kg/injection, schedule: Q01DX001 (ip), vehicle: Klucel (hydroxypropylcellulose) (HPC)
[15] = dose: 200.0 mg/kg/injection, schedule: Q01DX001 (ip), vehicle: Klucel (hydroxypropylcellulose) (HPC)
[16] = dose: 400.0 mg/kg/injection, schedule: Q01DX001 (ip), vehicle: Klucel (hydroxypropylcellulose) (HPC)
[17] = dose: 100.0 mg/kg/injection, schedule: Q01DX009 (ip), vehicle: saline with Tween-80
[18] = dose: 200.0 mg/kg/injection, schedule: Q01DX009 (ip), vehicle: saline with Tween-80
[19] = dose: 200.0 mg/kg/injection, schedule: Q04DX003 (ip), vehicle: saline with Tween-80
[20] = dose: 400.0 mg/kg/injection, schedule: Q01DX009 (ip), vehicle: saline with Tween-80
[21] = dose: 400.0 mg/kg/injection, schedule: Q04DX003 (ip), vehicle: saline with Tween-80
[22] = dose: 400.0 mg/kg/injection, schedule: Q01DX009 (ip), vehicle: Klucel (hydroxypropylcellulose) (HPC)
[23] = dose: 100.0 mg/kg/injection, schedule: Q04DX003 (ip), vehicle: Klucel (hydroxypropylcellulose) (HPC)
[24] = dose: 100.0 mg/kg/injection, schedule: Q04DX002 (ip), vehicle: saline with Tween-80
[25] = dose: 200.0 mg/kg/injection, schedule: Q04DX002 (ip), vehicle: saline with Tween-80
[26] = dose: 400.0 mg/kg/injection, schedule: Q04DX002 (ip), vehicle: saline with Tween-80
[27] = dose: 100.0 mg/kg/injection, schedule: Q01DX001 (ip), vehicle: other
[28] = dose: 200.0 mg/kg/injection, schedule: Q01DX001 (ip), vehicle: other
[29] = dose: 400.0 mg/kg/injection, schedule: Q01DX001 (ip), vehicle: other
[30] = dose: 200.0 mg/kg/injection, schedule: Q04DX003 (ip), vehicle: Klucel (hydroxypropylcellulose) (HPC)
[31] = dose: 400.0 mg/kg/injection, schedule: Q04DX003 (ip), vehicle: Klucel (hydroxypropylcellulose) (HPC)

Measured: T/C

Nc1cccc(CCc2nc(N)nc(N)c2-c2ccc(Cl)cc2)c1
inactive: [1] 97 % of control | [2] 95 % of control | [3] 101 % of control

NC(=S)N/N=C/c1c(Cl)[nH]c2ccccc12
inactive: dose: 50.0 mg/kg/injection, schedule: Q04DX002 (ip), vehicle: saline 98 % of control | dose: 100.0 mg/kg/injection, schedule: Q04DX002 (ip), vehicle: saline 102 % of control | dose: 200.0 mg/kg/injection, schedule: Q04DX002 (ip), vehicle: saline 98 % of control

COc1ccc(CN2CCCN(Cc3ccc(OC)cc3)C2c2cc(I)cc(I)c2O)cc1
inactive: dose: 100.0 mg/kg/injection, schedule: Q01DX001 (ip), vehicle: acetone 96 % of control | dose: 200.0 mg/kg/injection, schedule: Q01DX001 (ip), vehicle: acetone 96 % of control | dose: 400.0 mg/kg/injection, schedule: Q01DX001 (ip), vehicle: acetone 94 % of control

OC(CC(CC(O)(C(F)(F)F)C(F)(F)F)=NNc1ccccc1)(C(F)(F)F)C(F)(F)F
inactive: dose: 25.0 mg/kg/injection, schedule: Q04DX003 (ip), vehicle: saline with Tween-80 101 % of control | dose: 50.0 mg/kg/injection, schedule: Q04DX003 (ip), vehicle: saline with Tween-80 101 % of control | [4] 93 % of control and 90 % of control

COc1c2occc2c(OC)c2c(=O)cc(/C=C/c3ccncc3)oc12
inactive: [5] 97 % of control | [6] 94 % of control | [7] 101 % of control

CCN(CC)CC(=O)NCC(CCN1CCCCC1)(CC(C)C)c1cccc2ccccc12 (stereo not drawn)
inactive: [8] 102 % of control | [9] 105 % of control | [10] 114 % of control

Cc1ccc(S(=O)(=O)N2CCCC2CO)cc1 (stereo not drawn)
inactive: [11] 97 % of control | [12] 101 % of control | [13] 101 % of control

CCCCCc1cc(=O)[nH]c(=O)[nH]1
inactive: dose: 50.0 mg/kg/injection, schedule: Q01DX001 (ip), vehicle: Klucel (hydroxypropylcellulose) (HPC) 97 % of control | [14] 96 % of control | [15] 96 % of control

CCC(CC)C(N)=O
inactive: [14] 100 % of control | [15] 102 % of control | [16] 107 % of control

COc1cc(C)cc(C(=O)O)c1O
inactive: dose: 200.0 mg/kg/injection, schedule: Q01DX001 (ip), vehicle: carboxymethylcellulose (CMC) 90 % of control

CCCC(OC(C[N+](=O)[O-])C(Cl)(Cl)Cl)c1ccccc1 (stereo not drawn)
inactive: [17] 97 % of control | [4] 98 % of control | [18] 101 % of control | [19] 96 % of control | [20] 107 % of control | [21] 96 % of control

O=C(Nc1ccc(Cl)cc1)Oc1c(Cl)cc(S(=O)(=O)F)cc1Cl
inactive: dose: 25.0 mg/kg/injection, schedule: Q04DX002 (ip), vehicle: Klucel (hydroxypropylcellulose) (HPC) 94 % of control | [11] 97 % of control | dose: 50.0 mg/kg/injection, schedule: Q04DX002 (ip), vehicle: Klucel (hydroxypropylcellulose) (HPC) 91 % of control | [12] 97 % of control | dose: 100.0 mg/kg/injection, schedule: Q04DX002 (ip), vehicle: Klucel (hydroxypropylcellulose) (HPC) 99 % of control and 91 % of control

O=C(Nc1cc(NC(=O)Oc2ccccc2)cc([N+](=O)[O-])c1)Oc1ccccc1
inactive: [4] 96 % of control | [19] 103 % of control | [21] 88 % of control

COc1ccc(OC)c(NC(=O)Nc2ccc(C(=O)O)cc2)c1
inactive: [12] 109 % of control | [13] 96 % of control | [22] 96 % of control

NS(=O)(=O)N1CCCCC1
inactive: dose: 9.5 mg/kg/injection, schedule: Q01DX001 (ip), vehicle: saline 104 % of control | dose: 19.0 mg/kg/injection, schedule: Q01DX001 (ip), vehicle: saline 104 % of control | dose: 38.0 mg/kg/injection, schedule: Q01DX001 (ip), vehicle: saline 95 % of control

CCOC(=O)c1[nH]c(C)c(CC(C(=O)OCC)C(=O)OCC)c1C
inactive: dose: 25.0 mg/kg/injection, schedule: Q04DX003 (ip), vehicle: Klucel (hydroxypropylcellulose) (HPC) 97 % of control | dose: 50.0 mg/kg/injection, schedule: Q04DX003 (ip), vehicle: Klucel (hydroxypropylcellulose) (HPC) 93 % of control | [14] 101 % of control | [23] 95 % of control | [15] 95 % of control | [16] 98 % of control

Oc1c(Br)cc(Br)cc1C=NCC1CCC(CN=Cc2cc(Br)cc(Br)c2O)CC1 (stereo not drawn)
inactive: [17] 92 % of control | [24] 110 % of control and 90 % of control | [25] 96 % of control and 90 % of control | [20] 92 % of control and 94 % of control | [26] 106 % of control and 90 % of control

CC(=O)OC(CC(O)(C(F)(F)F)C(F)(F)F)C(C)(C)C (stereo not drawn)
inactive: [8] 104 % of control | [9] 102 % of control | [4] 98 % of control

Cc1ccc(Nc2cc(Br)c(N)c3c2C(=O)c2ccccc2C3=O)cc1
inactive: [1] 103 % of control | [17] 93 % of control and 94 % of control | [24] 92 % of control | [4] 97 % of control | [2] 102 % of control | [18] 93 % of control and 94 % of control | [25] 86 % of control | [19] 95 % of control | [3] 91 % of control | [20] 96 % of control and 97 % of control | [26] 86 % of control | [21] 90 % of control

CC(=O)CCCCC(C)=O
inactive: [5] 98 % of control | [6] 101 % of control | [7] 104 % of control

CCOC(=O)CN(CCN(CC)CC)c1ccc([N+](=O)[O-])cc1[N+](=O)[O-]
inactive: [27] 92 % of control | [28] 87 % of control | [29] 100 % of control

O=S(=O)(Cc1cccc(C(F)(F)F)c1)c1ccccc1-n1cccc1
inactive: [30] 90 % of control | [31] 98 % of control

CCN(CC)Cc1ccccc1
inactive: dose: 75.0 mg/kg/injection, schedule: Q01DX001 (ip), vehicle: other 95 % of control

Cc1cc(CO)c(O)c(CO)c1
inactive: [27] 108 % of control | [10] 97 % of control | [28] 100 % of control | dose: 200.0 mg/kg/injection, schedule: Q01DX009 (ip), vehicle: saline 103 % of control | [29] 103 % of control | dose: 400.0 mg/kg/injection, schedule: Q01DX009 (ip), vehicle: saline 103 % of control

C[n+]1ccc(/C=C/c2ccc(O)c3ccccc23)cc1
inactive: dose: 75.0 mg/kg/injection, schedule: Q01DX001 (ip), vehicle: saline 100 % of control | dose: 150.0 mg/kg/injection, schedule: Q01DX001 (ip), vehicle: saline 101 % of control

COC1=C(C)CCC1=O
inactive: dose: 37.5 mg/kg/injection, schedule: Q04DX002 (ip), vehicle: saline 106 % of control | dose: 75.0 mg/kg/injection, schedule: Q04DX002 (ip), vehicle: saline 95 % of control | dose: 150.0 mg/kg/injection, schedule: Q04DX002 (ip), vehicle: saline 98 % of control | dose: 300.0 mg/kg/injection, schedule: Q04DX002 (ip), vehicle: saline 88 % of control

Cc1ccc(S(=O)(=O)Nc2ccccc2)c(C(O)(c2ccccc2)c2ccccc2)c1
inactive: [17] 91 % of control | [18] 96 % of control | [20] 93 % of control

O=C(COc1ccc(Cl)cc1)Nc1ccccc1F
inactive: [12] 88 % of control | [23] 95 % of control | [13] 89 % of control | [30] 88 % of control | [22] 91 % of control | [31] 90 % of control

O=C1CSc2ccccc2N1CCN1C(=O)CSc2ccccc21
inactive: dose: 50.0 mg/kg/injection, schedule: Q04DX002 (ip), vehicle: saline with Tween-80 93 % of control | [24] 90 % of control | [25] 101 % of control | [26] 86 % of control
